From PubChem BioAssay (NCI)
“And” between values parts separate entries of the source, which are not always exact repeats. Equal values may be shown once.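 Step 1: Grow cells in 96-well plates. Step 2: Expose to compound for 48 hours at 5 concentrations. Step 3: Interpolate endpoints linearly; if unreached, use highest concentration. GI50 is the concentration that inhibits growth by half. TGI denotes the concentration required for complete inhibition of growth.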

Tests used:
Assay in all cases: NCI-60 cell line screen, 48 h
A498 renal = tested on: A498 renal
SK-MEL-5 melanoma = tested on: SK-MEL-5 melanoma
LOX IMVI melanoma = tested on: LOX IMVI melanoma
UACC-257 melanoma = tested on: UACC-257 melanoma
CCRF-CEM leukemia = tested on: CCRF-CEM leukemia
SF-295 CNS = tested on: SF-295 CNS
OVCAR-3 ovarian = tested on: OVCAR-3 ovarian
SR leukemia = tested on: SR leukemia
OVCAR-5 ovarian = tested on: OVCAR-5 ovarian
RXF 393 renal = tested on: RXF 393 renal
SK-MEL-2 melanoma = tested on: SK-MEL-2 melanoma
UO-31 renal = tested on: UO-31 renal
DU-145 prostate = tested on: DU-145 prostate
U251 CNS = tested on: U251 CNS
HCT-15 colon = tested on: HCT-15 colon
NCI-H460 lung = tested on: NCI-H460 lung
ACHN renal = tested on: ACHN renal
HOP-92 NSCLC = tested on: HOP-92 NSCLC
SN12C renal = tested on: SN12C renal
MALME-3M melanoma = tested on: MALME-3M melanoma
KM12 colon = tested on: KM12 colon
MDA-MB-231 breast = tested on: MDA-MB-231 breast
SF-268 CNS = tested on: SF-268 CNS
SF-539 CNS = tested on: SF-539 CNS
M14 melanoma = tested on: M14 melanoma
PC-3 prostate = tested on: PC-3 prostate
HT29 colon = tested on: HT29 colon
OVCAR-4 ovarian = tested on: OVCAR-4 ovarian
CAKI-1 renal = tested on: CAKI-1 renal
786-0 renal = tested on: 786-0 renal
HOP-62 NSCLC = tested on: HOP-62 NSCLC
SNB-19 CNS = tested on: SNB-19 CNS
TK-10 renal = tested on: TK-10 renal
T-47D breast = tested on: T-47D breast
UACC-62 melanoma = tested on: UACC-62 melanoma
NCI-H226 lung = tested on: NCI-H226 lung
COLO 205 colon = tested on: COLO 205 colon
MCF7 breast = tested on: MCF7 breast
NCI-H522 lung = tested on: NCI-H522 lung
HCT-116 colon = tested on: HCT-116 colon
EKVX NSCLC = tested on: EKVX NSCLC
SK-OV-3 ovarian = tested on: SK-OV-3 ovarian
RPMI-8226 leukemia = tested on: RPMI-8226 leukemia
BT-549 breast = tested on: BT-549 breast
NCI-H23 lung = tested on: NCI-H23 lung
IGROV1 ovarian = tested on: IGROV1 ovarian
HCC-2998 colon = tested on: HCC-2998 colon
A549 NSCLC = tested on: A549 NSCLC
SNB-75 CNS = tested on: SNB-75 CNS
SW-620 colon = tested on: SW-620 colon
OVCAR-8 ovarian = tested on: OVCAR-8 ovarian
K-562 leukemia = tested on: K-562 leukemia
HL-60(TB) leukemia = tested on: HL-60(TB) leukemia
HS 578T breast = tested on: HS 578T breast
NCI/ADR-RES ovarian = tested on: NCI/ADR-RES ovarian
MOLT-4 leukemia = tested on: MOLT-4 leukemia

With `C[C@@H](Oc1cc(-n2cnc3ccc(CN4CCN(C)CC4)cc32)sc1C(N)=O)c1ccccc1C(F)(F)F` the GI50 (A498 renal) was 61.5 nM and 34.1 nM, the TGI (A498 renal) was 982 nM and 187 nM and the GI50 (SK-MEL-5 melanoma) was 21.8 nM and 97.6 nM. For the same molecule, the TGI (SK-MEL-5 melanoma) was 1510 nM and > 10000 nM, the GI50 (LOX IMVI melanoma) was < 18 nM and 23.1 nM and the TGI (LOX IMVI melanoma) was 5500 nM and > 10000 nM. The GI50 (UACC-257 melanoma) was 2030 nM, the TGI (UACC-257 melanoma) was over 10000 nM and the GI50 (CCRF-CEM leukemia) was < 10 nM and 14.9 nM. For the same molecule, the TGI (CCRF-CEM leukemia) was 4240 nM and > 2070 nM, the GI50 (SF-295 CNS) was 48.6 nM and the TGI (SF-295 CNS) was over 10000 nM. The GI50 (OVCAR-3 ovarian) was < 15.2 nM and 5.28 nM, the TGI (OVCAR-3 ovarian) was 16700 nM and > 10000 nM and the GI50 (SR leukemia) was < 10 nM and 5.14 nM. The TGI (SR leukemia) was 1750 nM and 1440 nM, the GI50 (OVCAR-5 ovarian) was < 17.5 nM and 26.4 nM and the TGI (OVCAR-5 ovarian) was 16600 nM and > 10000 nM. The GI50 (RXF 393 renal) was < 14.1 nM and 22.4 nM, the TGI (RXF 393 renal) was 10200 nM and > 10000 nM and the TGI (SK-MEL-2 melanoma) was over 10000 nM. For the same molecule, the GI50 (UO-31 renal) was 1670 nM and 776 nM, the TGI (UO-31 renal) was 16600 nM and > 10000 nM and the GI50 (DU-145 prostate) was < 13.4 nM and 9.75 nM. The TGI (DU-145 prostate) was 652 nM and 188 nM, the GI50 (U251 CNS) was < 13.7 nM and 25.5 nM and the TGI (U251 CNS) was 15600 nM and > 10000 nM. For the same molecule, the GI50 (HCT-15 colon) was 45 nM and 43.2 nM, the TGI (HCT-15 colon) was 12900 nM and > 10000 nM and the GI50 (NCI-H460 lung) was < 15.7 nM and 22.4 nM. For the same molecule, the TGI (NCI-H460 lung) was 12500 nM and > 10000 nM, the GI50 (ACHN renal) was 442 nM and 156 nM and the TGI (ACHN renal) was 15800 nM and > 10000 nM. The GI50 (HOP-92 NSCLC) was 34.2 nM and 191 nM, the TGI (HOP-92 NSCLC) was 947 nM and > 3140 nM and the GI50 (SN12C renal) was 116 nM and 200 nM. The TGI (SN12C renal) was 12100 nM and > 10000 nM, the GI50 (MALME-3M melanoma) was 2810 nM and 2770 nM and the TGI (MALME-3M melanoma) was 7620 nM and > 6990 nM. For the same molecule, the GI50 (KM12 colon) was < 12 nM and 5.56 nM, the TGI (KM12 colon) was 12700 nM and > 10000 nM and the TGI (MDA-MB-231 breast) was 2650 nM and > 2790 nM. The GI50 (SF-268 CNS) was 29.3 nM and 66.7 nM, the TGI (SF-268 CNS) was 16300 nM and > 10000 nM and the GI50 (SF-539 CNS) was 36.9 nM and 30.2 nM. The TGI (SF-539 CNS) was 2090 nM, the GI50 (M14 melanoma) was 12.3 nM and the TGI (M14 melanoma) was 2310 nM. The GI50 (PC-3 prostate) was < 19.2 nM and 29.3 nM, the TGI (PC-3 prostate) was 15500 nM and > 10000 nM and the GI50 (HT29 colon) was < 10 nM and 4.02 nM. For the same molecule, the TGI (HT29 colon) was 6510 nM and > 10000 nM, the GI50 (OVCAR-4 ovarian) was 817 nM and 980 nM and the TGI (OVCAR-4 ovarian) was 17500 nM and > 10000 nM. For the same molecule, the GI50 (CAKI-1 renal) was 337 nM and 222 nM, the TGI (CAKI-1 renal) was 15100 nM and > 10000 nM and the GI50 (786-0 renal) was 43.9 nM and 85.4 nM. For the same molecule, the TGI (786-0 renal) was 2040 nM and > 7110 nM, the GI50 (HOP-62 NSCLC) was 11.8 nM and 19.9 nM and the TGI (HOP-62 NSCLC) was 12700 nM and > 10000 nM. The GI50 (SNB-19 CNS) was 23.3 nM and 16.2 nM, the TGI (SNB-19 CNS) was 15400 nM and > 10000 nM and the GI50 (TK-10 renal) was 2690 nM and 1460 nM. The TGI (TK-10 renal) was 17300 nM and > 10000 nM, the GI50 (T-47D breast) was 3350 nM and the TGI (T-47D breast) was 21400 nM and > 10000 nM. The GI50 (UACC-62 melanoma) was 32.6 nM and 38.2 nM, the TGI (UACC-62 melanoma) was 16700 nM and > 10000 nM and the TGI (NCI-H226 lung) was 19000 nM and > 10000 nM. The GI50 (COLO 205 colon) was < 10 nM and 4.24 nM, the TGI (COLO 205 colon) was 699 nM and the GI50 (MCF7 breast) was < 10 nM and 4.78 nM. For the same molecule, the TGI (MCF7 breast) was 15200 nM and > 10000 nM, the GI50 (NCI-H522 lung) was < 10 nM and 5.31 nM and the TGI (NCI-H522 lung) was 36.9 nM. The GI50 (HCT-116 colon) was < 12.5 nM and 13.9 nM, the TGI (HCT-116 colon) was 12900 nM and > 10000 nM and the TGI (EKVX NSCLC) was 21600 nM and > 10000 nM. The GI50 (SK-OV-3 ovarian) was 25 nM and 67.3 nM, the TGI (SK-OV-3 ovarian) was 1670 nM and > 10000 nM and the GI50 (RPMI-8226 leukemia) was 54.6 nM and 38.4 nM. The TGI (RPMI-8226 leukemia) was 13600 nM and > 10000 nM, the GI50 (BT-549 breast) was 74.6 nM and 139 nM and the TGI (BT-549 breast) was 15200 nM and > 10000 nM. For the same molecule, the GI50 (NCI-H23 lung) was < 11.4 nM and 14.5 nM, the TGI (NCI-H23 lung) was 13200 nM and > 10000 nM and the GI50 (IGROV1 ovarian) was 62.1 nM and 33.6 nM. The TGI (IGROV1 ovarian) was 15100 nM and > 10000 nM, the GI50 (HCC-2998 colon) was < 16.1 nM and 39.7 nM and the GI50 (A549 NSCLC) was 21.1 nM and 30.6 nM. For the same molecule, the TGI (A549 NSCLC) was 10800 nM and > 10000 nM, the GI50 (SNB-75 CNS) was 36.3 nM and 24.9 nM and the GI50 (SW-620 colon) was < 10 nM and 4.62 nM. For the same molecule, the TGI (SW-620 colon) was 12900 nM and > 10000 nM, the GI50 (OVCAR-8 ovarian) was < 15.3 nM and 14.6 nM and the TGI (OVCAR-8 ovarian) was 13600 nM and > 10000 nM. For the same molecule, the GI50 (K-562 leukemia) was 3.17 nM, the GI50 (HL-60(TB) leukemia) was < 10 nM and 5.95 nM and the TGI (HL-60(TB) leukemia) was under 17.9 nM. For the same molecule, the GI50 (HS 578T breast) was 85.3 nM and 35 nM, the TGI (HS 578T breast) was 2530 nM and the GI50 (NCI/ADR-RES ovarian) was 162 nM and 200 nM. For the same molecule, the TGI (NCI/ADR-RES ovarian) was 14300 nM and > 10000 nM, the GI50 (MOLT-4 leukemia) was < 10.7 nM and 11.2 nM and the TGI (MOLT-4 leukemia) was 4710 nM and 2760 nM.
